Results taken from patent US9957214B2, “Multifunctional radical quenchers” (ARIZONA BOARD OF REGENTS ON BEHALF OF ARIZONA STATE …, priority 2012, dated 2018).
Like-named read-outs stand apart in the source and are kept apart here. One block for each molecule: values may come before it.

Experiments:
FRDA lymphocytes = experiment: Suppression of lipid peroxidation (C11-BODIPY581/591, FACS) in FRDA lymphocytes treated with diethyl maleate; assay type: cell-based; details: DEM; for inhibition at 5 µM / inhibition at 10 µM / inhibition at 1 µM: Lymphocyte, read-out: Scavenging activity (%), suppression of lipid peroxidation
Source text: Several methods for assaying lipid peroxidation in vitro have been developed (Kuypers et al. (1987) Biochim Biophys Acta. 25, 266-274; Pap et al. (1999) FEBS Lett. 453, 278-282; Drummen et al. (2002) Free RadicBiol Med. 33, 473-490). Almost all of these methods are based on inhibition of free radical-induced oxidation reactions. A widely used fluorescence assay for lipid peroxidation uses lipid soluble cis-parinaric acid as a probe. cis-parinaric acid loses its fluorescence (λexc/em: 320/432 nm) upon interaction with peroxyl radicals and retains its fluorescence in the presence of radical quenchers. cis-parinaric acid is, however, air sensitive, photolabile and absorbs light in the UV region of the spectrum (at ˜320 nm). […] In practical terms, the results obtained using cis-parinaric as a probe for lipid peroxidation are confounded due to the overlapping of the compounds emission spectra with the cis-parinaric emission spectrum. C11-BODIPY^581/591 Oxidation to Measure Lipid Peroxidation To overcome the problem of spectral overlap using cis-parinaric acid, a fluorescence assay for lipid peroxidation using a lipophilic probe belonging to the BODIPY class of fluorescent dyes was used C11-BODIPY^581/591 (4,4-difluoro-5(4-phenyl-1,3-butadienyl)-4-bora-3a, 4a-diaza-s-indacene-3-propionic acid) fluorescent shifts from red to green upon oxidation. C11-BODIPY^581/591 (Molecular Probes, Eugene, Oreg., USA) stock solution concentrations were determined by measuring the absorption of C11-BODIPY^581/591 at 582 nm using a molar extinction coefficient of 140,000 mol^−1 cm^−1 (R. P. Haugland, (1999) Handbook of Fluorescent Probes and Research Chemicals, Molecular Probes, Inc., Eugene, Oreg.). The lipid peroxidation inducer 2,2′-Azobis (2-amidino-propane dihydrochloride) (AAPH) and the antioxidant compound α-tocopherol (α-TOH) were obtained from Sigma (St. Louis, Mo., USA). Phospholipid bilayers were prepared from 1-stearoyl-2-oleoyl-phosphatidylcholine (SOPC) and 1,2-dilinoleoyl-phosphatidylcholine (DLPC) and were purchased from Avanti® polar lipids, Inc., (Alabaster, Ala., USA). Preparation of Liposomes Phosphotidylcholine (PC) liposomes were prepared as described before (Guey-Shuang et al. (1982) Lipids. 17, 403-413). Briefly, DLPC (25 mg) were dissolved in chloroform and the solvent was removed by nitrogen evaporation (˜2 hours) to give a thin film of PC in a round bottom flask. The lipid film was hydrated with 50 mL of 10 mM Tris-HCl (pH 7.4), 100 mM KCl, shaken and sonicated for 15 seconds. The liposomes obtained were filtered several times through […] membrane filter. Measurement of C11-BODIPY^581/591 Oxidation C11-BODIPY^581/591 was incorporated into liposomes and oxidized by peroxyl radicals derived from the decomposition of AAPH in the presence and absence of compounds. Liposomes (1 mg/mL), suspended in 10 mM Tris-HCl (pH 7.4), 100 mM KCl, were transferred to a quartz 1 mL cuvette and placed in a Varian Cary Eclipse fluorometer (Varian, Cary, N.C.) equipped with a thermostatted cuvette holder at 40° C. Liposomes were pre-incubated for 10 min with 200 nM C11-BODIPY^581/591 to allow their incorporation into the lipid phase of the liposomes. After the addition of AAPH (10 mM) the decay of the red fluorescence was followed at λ exc=570 nm, λ em=600 nm. Relative fluorescence units were normalized to 100% intensity. Results obtained were verified by repeating experiments N=3 independent experiments. Measurement of C11-BODIPY^581/591 Oxidation in Cell Culture A quantitative FACS analysis of lipid peroxidation of FRDA lymphocytes, which had been treated with diethyl maleate following incubation in the presence and absence of the test compounds, was measured as described (Khdour et al. (2011) Pharmaceut. Res. 28, 2896-2909). Briefly, FRDA lymphocytes (5×10^5 cell/mL) were treated with the test compounds at final concentrations of 5 and 10 μM and incubated at 37° C. for 16 h in a humidified atmosphere containing 5% CO2 in air. […]

[1] = target: bovine heart mitochondrial complex I (Bos taurus, UniProt P03887+P17694+P42026); experiment: Complex I (NADH-Q1 oxidoreductase) inhibition in submitochondrial particles; assay type: biochemical
bovine heart mitochondrial complex I, sequence (P25708 21-464): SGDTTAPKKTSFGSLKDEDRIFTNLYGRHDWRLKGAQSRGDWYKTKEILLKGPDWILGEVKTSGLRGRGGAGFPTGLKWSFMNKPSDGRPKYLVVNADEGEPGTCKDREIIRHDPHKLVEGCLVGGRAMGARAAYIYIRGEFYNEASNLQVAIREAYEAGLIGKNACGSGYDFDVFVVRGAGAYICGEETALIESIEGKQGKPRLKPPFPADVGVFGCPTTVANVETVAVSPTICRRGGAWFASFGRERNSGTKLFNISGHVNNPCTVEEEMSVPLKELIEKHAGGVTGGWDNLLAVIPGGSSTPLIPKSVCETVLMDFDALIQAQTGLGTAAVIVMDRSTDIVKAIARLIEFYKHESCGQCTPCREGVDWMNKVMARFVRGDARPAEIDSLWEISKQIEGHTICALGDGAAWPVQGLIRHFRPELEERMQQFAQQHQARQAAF
bovine heart mitochondrial complex I, sequence (P42026 38-216): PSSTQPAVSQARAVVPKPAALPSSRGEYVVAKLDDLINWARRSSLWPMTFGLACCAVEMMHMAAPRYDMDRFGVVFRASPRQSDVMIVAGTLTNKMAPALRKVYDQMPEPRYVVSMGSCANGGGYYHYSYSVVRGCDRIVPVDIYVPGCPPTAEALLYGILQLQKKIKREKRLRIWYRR
bovine heart mitochondrial complex I, sequence (P17694 34-463): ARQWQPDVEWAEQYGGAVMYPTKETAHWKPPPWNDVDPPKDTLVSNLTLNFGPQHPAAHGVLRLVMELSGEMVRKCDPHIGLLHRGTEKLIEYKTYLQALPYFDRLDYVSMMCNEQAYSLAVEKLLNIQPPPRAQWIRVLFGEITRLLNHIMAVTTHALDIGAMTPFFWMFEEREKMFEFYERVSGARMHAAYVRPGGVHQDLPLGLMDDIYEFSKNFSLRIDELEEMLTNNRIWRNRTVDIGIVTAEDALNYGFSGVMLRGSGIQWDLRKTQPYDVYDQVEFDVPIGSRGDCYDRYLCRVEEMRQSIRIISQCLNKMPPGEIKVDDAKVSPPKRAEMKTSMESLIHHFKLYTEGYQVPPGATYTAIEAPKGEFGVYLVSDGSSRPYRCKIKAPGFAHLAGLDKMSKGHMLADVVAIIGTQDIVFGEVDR
bovine heart mitochondrial complex I, sequence (P15690 24-727, further chain): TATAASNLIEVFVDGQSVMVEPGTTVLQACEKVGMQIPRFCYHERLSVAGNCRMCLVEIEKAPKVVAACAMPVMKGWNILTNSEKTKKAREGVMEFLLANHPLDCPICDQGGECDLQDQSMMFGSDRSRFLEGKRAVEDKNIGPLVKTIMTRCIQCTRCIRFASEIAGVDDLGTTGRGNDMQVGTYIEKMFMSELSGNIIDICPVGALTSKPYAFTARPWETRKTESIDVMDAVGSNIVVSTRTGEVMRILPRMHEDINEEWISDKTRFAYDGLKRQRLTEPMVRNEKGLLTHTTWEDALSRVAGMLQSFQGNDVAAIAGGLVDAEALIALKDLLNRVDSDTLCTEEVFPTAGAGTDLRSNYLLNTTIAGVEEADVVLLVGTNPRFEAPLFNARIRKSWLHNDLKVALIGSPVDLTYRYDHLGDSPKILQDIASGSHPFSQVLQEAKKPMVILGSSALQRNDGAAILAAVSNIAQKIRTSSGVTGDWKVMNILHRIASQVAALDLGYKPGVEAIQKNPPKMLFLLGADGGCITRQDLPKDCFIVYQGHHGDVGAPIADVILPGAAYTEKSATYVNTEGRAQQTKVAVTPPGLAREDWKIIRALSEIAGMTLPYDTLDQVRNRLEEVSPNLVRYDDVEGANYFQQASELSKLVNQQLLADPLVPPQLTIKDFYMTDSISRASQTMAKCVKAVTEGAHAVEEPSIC
bovine heart mitochondrial complex I, sequence (P03887 whole entry): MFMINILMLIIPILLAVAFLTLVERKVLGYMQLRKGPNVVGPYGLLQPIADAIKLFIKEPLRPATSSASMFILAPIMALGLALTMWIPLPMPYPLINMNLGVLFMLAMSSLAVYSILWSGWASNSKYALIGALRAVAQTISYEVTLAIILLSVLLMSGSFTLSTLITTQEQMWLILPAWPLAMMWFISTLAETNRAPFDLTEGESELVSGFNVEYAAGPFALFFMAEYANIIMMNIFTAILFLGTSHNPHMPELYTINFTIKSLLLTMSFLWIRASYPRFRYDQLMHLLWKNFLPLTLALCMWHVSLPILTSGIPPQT
bovine heart mitochondrial complex I, sequence (P42028 37-212, further chain): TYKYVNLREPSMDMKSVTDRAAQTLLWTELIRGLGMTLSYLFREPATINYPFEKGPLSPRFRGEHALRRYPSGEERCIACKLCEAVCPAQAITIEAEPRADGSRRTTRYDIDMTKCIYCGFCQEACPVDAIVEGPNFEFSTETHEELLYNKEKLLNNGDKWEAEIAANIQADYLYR

[2] = tested on: Friedreich's ataxia lymphoblast cell line GM15850; experiment: Cytoprotection (trypan blue exclusion assay) of DEM-treated FRDA lymphocytes; assay type: cell-based; details: DEM alone 18 ± 10% viability; for viability at 5 µM / viability at 0.1 µM / viability at 0.5 µM / viability at 2.5 µM: Homo sapiens, GM15850, read-out: Cytoprotection (cell viability, % of untreated control)
Procedure: Cell viability was determined by trypan blue exclusion assay in Friedreich's ataxia lymphoblast cell line GM15850 (Coriell Institute, New Jersey). This technique was used to assess the cytoprotective effects of the tested compounds in cultured cells treated with DEM to induce cell death by GSH depletion. The viability of DEM-treated FRDA cells was determined by their ability to exclude the dye trypan blue. Viable cells exclude trypan blue, whereas non-viable cells take up the dye and stain blue. Briefly, FRDA lymphocytes were grown in RPMI 1640 medium (Gibco) supplemented with 15% fetal calf serum, 2 mM glutamine (HyClone) and 1% penicillin-streptomycin mix (Cellgro). Cells were seeded at a density of 5×10^5 cells/mL and treated with different concentrations of the indicated compounds. Cells were incubated at 37° C. in a humidified atmosphere of 5% CO2 in air for 17 h. After pre-incubation, the cells were treated with 5 mM DEM. Cell viability was determined by staining cells with 0.4% trypan blue using a hemacytometer. At least 500 cells were counted in each experimental group. At the time of assay, <20% of DEM treated cells were viable (trypan blue negative), whereas in non DEM-treated control, >90% cells were viable. Cell viability was expressed as the percentage of control. Data are expressed as means±S.E.M. (n=3).
Cell viability was determined by trypan blue exclusion assay in Friedreich's ataxia lymphoblast cell line GM15850 (Coriell Institute). This technique was used to assess the cytoprotective effects of the compounds in cultured cells treated with diethyl maleate (DEM) to induce cell death by glutathione (GSH) depletion. The viability of DEM-treated FRDA cells was determined by their ability to exclude the dye trypan blue. Viable cells exclude trypan blue, whereas non-viable cells take up the dye and stain blue. […] Benzoquinone analogue 9 afforded greater cyoprotection to FRDA lymphocytes at 5 μM concentration than did the tert-butyl ester 6 (74 vs 50%).

[3] = tested on: NADH oxidase (complexes I, III and IV); experiment: NADH oxidase activity (complexes I, III and IV) in submitochondrial particles; assay type: biochemical, bovine
CEM leukemia cells = experiment: Suppression of ROS production (DCFH-DA flow cytometry) in DEM-treated CEM leukemia cells; assay type: cell-based; details: 5 μM; CEM leukemia cells pretreated with DEM
Procedure: FIG. 1. Flow cytometric analysis of CEM leukemia lymphocytes (gray bars) and FRDA lymphocytes (black bars) stained with dichlorodihydrofluorescein diacetate (DCFH-DA) for 20 min, following pretreatment with the test compounds at 5 μM concentration for 16 h, and subsequent treatment with diethyl maleate (DEM) for 60 or 80 min to induce the production of ROS in CEM and FRDA lymphocytes, respectively. Data shown represent the mean±SEM of two different experiments run as duplicates.
Intracellular ROS production was measured in FRDA lymphocyte cells (GM15850, Coriell Cell Repositories, Camden, N.J.) using the oxidant sensitive fluorescent probe 2,7-dichlorodihydrofluorescein diacetate (DCFH-DA) (Molecular Probes) as described previously (Khdour et al. (2011) Pharm. Res. 28, 2896-2909). One mL of FRDA lymphocyte cells or leukemic CEM cells (5×10^5 cells) were plated in a 24-well plate, treated with the test compounds and incubated at 37° C. for 16 h in a humidified atmosphere containing 5% CO2 in air. Cells were treated with 5 mM diethyl maleate (DEM) for 80 min or 60 min respectively, collected by centrifugation at 300×g for 3 min and then washed with phosphate buffered saline (PBS) (Life Technologies). Cells were resuspended in PBS containing 20 mM glucose and incubated at 37° C. in the dark for […] with 10 μM DCFH-DA. Cells were collected by centrifugation at 300×g for 3 min and then washed with PBS. The samples were analyzed immediately by flow cytometry (C6 Accuri, BD Biosciences, San Jose, Calif.), using a 488 nm excitation laser and the FL1-H channel 530±15 nm emission filter. The generation of ROS, mainly peroxides, was detected as a result of the oxidation of DCFH. In each analysis, 10,000 events were recorded after cell debris was electronically gated out. Results obtained were verified by running duplicates and repeating experiments in three independent runs. Results were expressed as percentage of ROS scavenging activity.
The ability of the synthesized analogues to quench ROS and lipid peroxidation was evaluated in FRDA lymphocytes or leukemic CEM cells. These cells were placed under oxidative stress by depleting them of glutathione (GSH) using diethyl maleate (DEM). Depletion of glutathione by treatment FRDA lymphocytes or leukemic CEM cells with DEM has been used to induce oxidative stress in cellular systems by generation of ROS. Intracellular ROS production was measured using the oxidant sensitive fluorescent probe 2,7-dichlorodihydrofluorescein diacetate (DCFH-DA) (Molecular Probes).

[4] = submitochondrial particles, 30° C.; read-out: Complex I inhibition IC50
[5] = submitochondrial particles, 30° C.; read-out: Complex I inhibition Imax

- melting point: 110 °C (dec.)
SMILES: CCCCCCCCCCCCCC1=C(OC)C(=O)C=C(NCCCCCC)C1=O [Compound 20, 5-(hexylamino)-2-methoxy-3-tridecylcyclohexa-2,5-diene-1,4-dione]
- inhibition at 1 µM (FRDA lymphocytes): 14 ± 1.3%
- inhibition at 5 µM (FRDA lymphocytes; 5 μM): 61 ± 7.5%
- inhibition at 10 µM (FRDA lymphocytes; 10 μM): 70%
- IC50 [1, 4]: 482 ± 24 µM
- Emax [1, 5]: > 85%
- viability at 0.1 µM [2]: 20 ± 3.2%
- viability at 0.5 µM [2]: 50 ± 5.2%
- viability at 2.5 µM [2]: 66 ± 6.3%
- viability at 5 µM ([2]; 5 μM): 80 ± 4%
- NADH oxidase activity (Complex I, III, IV) % ([3]; 1 μM): 74 ± 16%
- NADH oxidase activity (Complex I, III, IV) % ([3]; 5 μM): 47 ± 3.0%

- melting point: 45 to 46 °C
SMILES: C=CCCCCCCCCCC1=C(OC)C(=O)C=C(NCCCCC=C)C1=O [Compound 38, 5-(hex-5-enylamino)-2-methoxy-3-(undec-10-enyl)cyclohexa-2,5-diene-1,4-dione]

- melting point: 82 to 84 °C
SMILES: COC1=C2CCCCCCCCCC=CCCCCNC(=CC1=O)C2=O [Compound 39]

The remaining lines, values behind:

SMILES: CCCCCCCCCCCCCC1=C(O)C(=O)C=C(NCCCC(=O)OC(C)(C)C)C1=O [Compound 6, tert-butyl 4-(4-hydroxy-3,6-dioxo-5-tridecylcyclohexa-1,4-dienylamino)butanoate]
- inhibition at 5 µM (FRDA lymphocytes; 5 μM): 26 ± 6.7%
- inhibition at 10 µM (FRDA lymphocytes; 10 μM): 37 ± 1.4%
- melting point: 96 to 97 °C
- IC50 [1, 4]: 10 ± 0.6 µM
- Emax [1, 5]: 64 ± 13%
- viability at 5 µM ([2]; 5 μM): 50%

SMILES: CCCCCCCCCCCCCC1=C(O)C(=O)C=C(NCCCCCC)C1=O [Compound 19, 5-(hexylamino)-2-hydroxy-3-tridecylcyclohexa-2,5-diene-1,4-dione]
- inhibition at 1 µM (FRDA lymphocytes): 2 ± 0.3%
- inhibition at 5 µM (FRDA lymphocytes; 5 μM): 27 ± 4.5%
- inhibition at 10 µM (FRDA lymphocytes; 10 μM): 38%
- melting point: 70 °C (dec.)
- IC50 ([1]; read-out: Complex I inhibition IC50; submitochondrial particles, 30° C.): 20 ± 1.7 µM
- Emax ([1]; read-out: Complex I inhibition Imax): 77 ± 6.2%
- viability at 0.1 µM [2]: 18 ± 2.1%
- viability at 0.5 µM [2]: 22 ± 2.6%
- viability at 2.5 µM [2]: 43 ± 4.4%
- viability at 5 µM ([2]; 5 μM): 65 ± 5.2%
- NADH oxidase activity (Complex I, III, IV) % ([3]; 1 μM): 67 ± 6.0%
- NADH oxidase activity (Complex I, III, IV) % ([3]; 5 μM): 39 ± 1.0%

SMILES: CCCCCCCCCCCCCC1=C(NCCCC(=O)OC(C)(C)C)C(=O)C(C)=C(NCCCC(=O)OC(C)(C)C)C1=O [Compound 44, 2,5-bis(tert-butyl 4-aminobutanoate)-3-methyl-6-tridecylcyclohexa-2,5-diene-1,4-dione]
- Scavenging activity (%), suppression of lipid peroxidation (FRDA lymphocytes; 5 μM): 8 ± 3%
- Scavenging activity (%), suppression of lipid peroxidation (FRDA lymphocytes; 10 μM): 13 ± 3^ %
- Scavenging activity (%), suppression of ROS production (CEM leukemia cells): 0%
- Cytoprotection (cell viability, % of untreated control) ([2]; 1 μM): 15 ± 2%
- Cytoprotection (cell viability, % of untreated control) ([2]; 5 μM): 98 ± 6^ %
- NADH oxidase activity (Complex I, III, IV) % ([3]; 1 μM): 95 ± 2^ %
- NADH oxidase activity (Complex I, III, IV) % ([3]; 5 μM): 92 ± 3^ %
- NADH oxidase activity (Complex I, III, IV) % ([3]; 10 μM): 84 ± 3%

SMILES: CCCCCCCCCCCCCC1=C(NCCCC(=O)OCCCC)C(=O)C(C)=C(NCCCC(=O)OCCCC)C1=O [Compound 47, 2,5-bis(butyl 4-aminobutanoate)-3-methyl-6-tridecylcyclohexa-2,5-diene-1,4-dione]
- Scavenging activity (%), suppression of lipid peroxidation (FRDA lymphocytes; 5 μM): 7 ± 1%
- Scavenging activity (%), suppression of lipid peroxidation (FRDA lymphocytes; 10 μM): 19 ± 2^ %
- Scavenging activity (%), suppression of ROS production (CEM leukemia cells): 25 ± 11%
- Cytoprotection (cell viability, % of untreated control) ([2]; 1 μM): 9 ± 2%
- Cytoprotection (cell viability, % of untreated control) ([2]; 5 μM): 17 ± 3^ %
- NADH oxidase activity (Complex I, III, IV) % ([3]; 1 μM): 77 ± 1^ %
- NADH oxidase activity (Complex I, III, IV) % ([3]; 5 μM): 68 ± 1^ %
- NADH oxidase activity (Complex I, III, IV) % ([3]; 10 μM): 69 ± 2%
